Structures are written as SMILES.

The target of one assay is WDR5 (Homo sapiens (Human), UniProt P61964). The following applies: FPA and TR-FRET binding affinity, WDR5 WIN-site.
In assay [1] the test system is MV4,11 human leukemia cells. As to the kind of experiment: cells. The following applies: MV4-11, 168 h. The method, then: Anti-Proliferative Activity Using MLL-Harboring and Non-MLL Cell Lines.
Viability assays are performed by dispensing 5,000 cells into each well of an opaque 96-well plate and adding compounds at the indicated concentrations in a final volume of 100 μL and a final concentration of DMSO of 0.1% for all samples. After a set incubation period, either a 3 day or 7 day protocol, the viability of cells in each well is assessed using the CellTiter-Glo assay (Promega), read on a GloMax 96 Microplane Luminometer (Promega). Serial dilutions of each cell type are included in all assays to generate standard curves and determine assay measurements are taken within the dynamic range of the instrument. GI50 values are calculated based on three biological replicates, each with three technical replicates. Data are expressed as mean plus/minus S.E.M.

For the molecule `CCC(=O)N1CCCC(C(=O)NC2CCc3ccc(-c4cn5c(n4)CCC5)cc32)C1` (stereo not drawn) [Example B8, N-(6-(6,7-dihydro-5H-pyrrolo[1,2-a]imidazol-2-yl)-2,3-dihydro-1H-inden-1-yl)-1-propionylpiperidine-3-carboxamide], the affinity at WDR5 corresponds to a Ki of 21 nM.
The same measure, in the same setting: to `CC(=O)N1CCCC(C(=O)N[C@@H]2CCc3ccc(-c4cn5c(n4)CCC5)cc32)C1` (stereo partly drawn) [Example B13, 1-acetyl-N—((R)-6-(6,7-dihydro-5H-pyrrolo[1,2-a]imidazol-2-yl)-2,3-dihydro-1H-inden-1-yl)piperidine-3-carboxamide] belongs 17.4 nM.
On the same count and under the same terms, to `CC(C)C(=O)N1CCCC(C(=O)NC2CCc3ccc(-c4cn5c(n4)CCC5)cc32)C1` (stereo not drawn) [Example B10, N-(6-(6,7-dihydro-5H-pyrrolo[1,2-a]imidazol-2-yl)-2,3-dihydro-1H-inden-1-yl)-1-isobutyrylpiperidine-3-carboxamide] belongs 70.9 nM.
The same measure, in the same setting: in the case of `CCC(=O)N1CCCC(C(=O)N[C@@H]2CCCc3ccc(-c4cn5c(n4)CCC5)cc32)C1` (stereo partly drawn) [Example B18, N—((R)-7-(6,7-dihydro-5H-pyrrolo[1,2-a]imidazol-2-yl)-1,2,3,4-tetrahydronaphthalen-1-yl)-1-propionylpiperidine-3-carboxamide] it was 14.3 nM.
The molecule `Cc1cc(Cl)nc(C(=O)N[C@@H]2CCc3ccc(-c4cn5c(n4)CCC5)cc32)c1` [Example B23, (R)-6-chloro-N-(6-(6,7-dihydro-5H-pyrrolo[1,2-a]imidazol-2-yl)-2,3-dihydro-1H-inden-1-yl)-4-methylpicolinamide] returned a Ki at WDR5 of 769 nM.
With `O=C(NC1CCc2ccc(-c3cn4c(n3)CCC4)cc21)C1CCCN(C(=O)CC(F)(F)F)C1` (stereo not drawn) [Example B9, N-(6-(6,7-dihydro-5H-pyrrolo[1,2-a]imidazol-2-yl)-2,3-dihydro-1H-inden-1-yl)-1-(3,3,3-trifluoropropanoyl)piperidine-3-carboxamide], the affinity on WDR5 corresponds to a Ki of 90 nM.
`COc1cc(C(=O)N[C@@H]2CCc3ccc(-c4cn5c(n4)CCC5)cc32)cc(OC)c1C` [Example B29, (R)—N-(6-(6,7-dihydro-5H-pyrrolo[1,2-a]imidazol-2-yl)-2,3-dihydro-1H-inden-1-yl)-3,5-dimethoxy-4-methylbenzamide] had a GI50 in assay [1] of 7250 nM.
Consider `COc1cc(C(=O)N[C@@H]2CCc3ccc(-c4cn5c(n4)CCC5)cc32)ccc1C` [Example B12, (R)—N-(6-(6,7-dihydro-5H-pyrrolo[1,2-a]imidazol-2-yl)-2,3-dihydro-1H-inden-1-yl)-3-methoxy-4-methylbenzamide], for which the GI50 in assay [1] was found to be 17200 nM.
For `O=C(N[C@@H]1CCc2ccc(-c3cn4c(n3)CCC4)cc21)c1ccncc1F` [Example B30, (R)—N-(6-(6,7-dihydro-5H-pyrrolo[1,2-a]imidazol-2-yl)-2,3-dihydro-1H-inden-1-yl)-3-fluoroisonicotinamide], at WDR5, the affinity corresponds to a Ki of 3750 nM.
In turn, `COc1cc(C(=O)N[C@@H]2CCCc3ccc(-c4cn5c(n4)CCC5)cc32)ccc1C` [Example B14, (R)—N-(7-(6,7-dihydro-5H-pyrrolo[1,2-a]imidazol-2-yl)-1,2,3,4-tetrahydronaphthalen-1-yl)-3-methoxy-4-methylbenzamide] yielded a GI50 in assay [1] of 22300 nM.
`COc1cccc(C(=O)N(CC2CC2)C2CCc3ccc(-c4cn5c(n4)CCC5)cc32)c1` (stereo not drawn) [Example B1, N-(cyclopropylmethyl)-N-(6-(6,7-dihydro-5H-pyrrolo[1,2-a]imidazol-2-yl)-2,3-dihydro-1H-inden-1-yl)-3-methoxybenzamide] yielded a Ki at WDR5 of 693 nM.
`CCC(=O)N1CCCC(C(=O)N[C@@H]2CCc3ccc(-c4cn5c(n4)CCC5)cc32)C1` (stereo partly drawn) [Example B16, N—((R)-6-(6,7-dihydro-5H-pyrrolo[1,2-a]imidazol-2-yl)-2,3-dihydro-1H-inden-1-yl)-1-propionylpiperidine-3-carboxamide]: the Ki at WDR5 was determined as 7.16 nM.
The same measure, in the same setting: to `COc1ccc(C(=O)N[C@@H]2CCc3ccc(-c4cn5c(n4)CCC5)cc32)cn1` [Example B19, (R)—N-(6-(6,7-dihydro-5H-pyrrolo[1,2-a]imidazol-2-yl)-2,3-dihydro-1H-inden-1-yl)-6-methoxynicotinamide] belongs 172 nM; to `Cc1ccc(C(=O)N[C@@H]2CCc3ccc(-c4cn5c(n4)CCC5)cc32)c(Cl)n1` [Example B28, (R)-2-chloro-N-(6-(6,7-dihydro-5H-pyrrolo[1,2-a]imidazol-2-yl)-2,3-dihydro-1H-inden-1-yl)-6-methylnicotinamide], 169 nM; to `CC(=O)N1CCCC(C(=O)NC2CCc3ccc(-c4cn5c(n4)CCC5)cc32)C1` (stereo not drawn) [Example B7, 1-acetyl-N-(6-(6,7-dihydro-5H-pyrrolo[1,2-a]imidazol-2-yl)-2,3-dihydro-1H-inden-1-yl)piperidine-3-carboxamide], 33 nM.
`COc1cncc(C(=O)N[C@@H]2CCc3ccc(-c4cn5c(n4)CCC5)cc32)c1` [Example B26, (R)—N-(6-(6,7-dihydro-5H-pyrrolo[1,2-a]imidazol-2-yl)-2,3-dihydro-1H-inden-1-yl)-5-methoxynicotinamide] gave a Ki at WDR5 of 18.5 nM.
`CC(=O)N1CCCC(C(=O)N[C@@H]2CCCc3ccc(-c4cn5c(n4)CCC5)cc32)C1` (stereo partly drawn) [Example B17, 1-acetyl-N—((R)-7-(6,7-dihydro-5H-pyrrolo[1,2-a]imidazol-2-yl)-1,2,3,4-tetrahydronaphthalen-1-yl)piperidine-3-carboxamide] showed an inhibition constant Ki at WDR5 of 36.2 nM.
`COc1cc(C)cc(C(=O)NC2CCc3ccc(-c4cn5c(n4)CCC5)cc32)c1` (stereo not drawn) [Example B5, N-(6-(6,7-dihydro-5H-pyrrolo[1,2-a]imidazol-2-yl)-2,3-dihydro-1H-inden-1-yl)-3-methoxy-5-methylbenzamide] returned a Ki at WDR5 of 27 nM.
For `Cc1cc(C(=O)N[C@@H]2CCc3ccc(-c4cn5c(n4)CCC5)cc32)cc(=O)[nH]1` [Example B22, (R)—N-(6-(6,7-dihydro-5H-pyrrolo[1,2-a]imidazol-2-yl)-2,3-dihydro-1H-inden-1-yl)-6-methyl-2-oxo-1,2-dihydropyridine-4-carboxamide], the Ki on WDR5 stood at 426 nM.
On WDR5, `CCOc1cccc(C(=O)NC2CCc3ccc(-c4cn5c(n4)CCC5)cc32)c1` (stereo not drawn) [Example B4, N-(6-(6,7-dihydro-5H-pyrrolo[1,2-a]imidazol-2-yl)-2,3-dihydro-1H-inden-1-yl)-3-ethoxybenzamide] had a Ki of 19.1 nM.
The molecule `O=C(Cc1ccc(Cl)c(Cl)c1)N[C@@H]1CCc2ccc(-c3cn4c(n3)CCC4)cc21` [Example B11, (R)-2-(3,4-dichlorophenyl)-N-(6-(6,7-dihydro-5H-pyrrolo[1,2-a]imidazol-2-yl)-2,3-dihydro-1H-inden-1-yl)acetamide] came in with a GI50 in assay [1] of 8890 nM.
`O=C(N[C@@H]1CCc2ccc(-c3cn4c(n3)CCC4)cc21)c1ccc(=O)[nH]c1` [Example B31, (R)—N-(6-(6,7-dihydro-5H-pyrrolo[1,2-a]imidazol-2-yl)-2,3-dihydro-1H-inden-1-yl)-6-oxo-1,6-dihydropyridine-3-carboxamide] registered a Ki at WDR5 of 835 nM.
The same measure, in the same setting: in the case of `O=C(N[C@@H]1CCc2ccc(-c3cn4c(n3)CCC4)cc21)c1ccnc(Cl)c1` [Example B20, (R)-2-chloro-N-(6-(6,7-dihydro-5H-pyrrolo[1,2-a]imidazol-2-yl)-2,3-dihydro-1H-inden-1-yl)isonicotinamide] it was 95.6 nM; in that of `Cc1ccc(C(=O)NC2CCc3ccc(-c4cn5c(n4)CCC5)cc32)cc1C(F)(F)F` (stereo not drawn) [Example B2, N-(6-(6,7-dihydro-5H-pyrrolo[1,2-a]imidazol-2-yl)-2,3-dihydro-1H-inden-1-yl)-4-methyl-3-(trifluoromethyl)benzamide], 1380 nM; in that of `CC(=O)Nc1cc(C(=O)N[C@@H]2CCc3ccc(-c4cn5c(n4)CCC5)cc32)ccc1C` [Example B27, (R)-3-acetamido-N-(6-(6,7-dihydro-5H-pyrrolo[1,2-a]imidazol-2-yl)-2,3-dihydro-1H-inden-1-yl)-4-methylbenzamide], 730 nM.
On WDR5, `COc1cc(C(=O)N[C@@H]2CCN(C(C)=O)c3ccc(-c4cn5c(n4)CCC5)cc32)ccc1C` [Example B33, (R)—N-(1-acetyl-6-(6,7-dihydro-5H-pyrrolo[1,2-a]imidazol-2-yl)-1,2,3,4-tetrahydroquinolin-4-yl)-3-methoxy-4-methylbenzamide] came in with a Ki of 22.2 nM.
Molecule `Cc1ccc(C(=O)N[C@@H]2CCc3ccc(-c4cn5c(n4)CCC5)cc32)cc1O` [Example B25, (R)—N-(6-(6,7-dihydro-5H-pyrrolo[1,2-a]imidazol-2-yl)-2,3-dihydro-1H-inden-1-yl)-3-hydroxy-4-methylbenzamide] displayed a Ki on WDR5 of 710 nM.
Turning to `O=C(N[C@@H]1CCc2ccc(-c3cn4c(n3)CCC4)cc21)c1cncc(F)c1` [Example B32, (R)—N-(6-(6,7-dihydro-5H-pyrrolo[1,2-a]imidazol-2-yl)-2,3-dihydro-1H-inden-1-yl)-5-fluoronicotinamide], the affinity at WDR5 corresponds to a Ki of 568 nM.
The same measure, in the same setting: in the case of `O=C(Cc1ccc(Cl)c(F)c1)N[C@@H]1CCc2ccc(-c3cn4c(n3)CCC4)cc21` [Example B15, (R)-2-(4-chloro-3-fluorophenyl)-N-(6-(6,7-dihydro-5H-pyrrolo[1,2-a]imidazol-2-yl)-2,3-dihydro-1H-inden-1-yl)acetamide] it was 2.37 nM.
The molecule `Cc1cnc(Cl)c(C(=O)N[C@@H]2CCc3ccc(-c4cn5c(n4)CCC5)cc32)c1` [Example B21, (R)-2-chloro-N-(6-(6,7-dihydro-5H-pyrrolo[1,2-a]imidazol-2-yl)-2,3-dihydro-1H-inden-1-yl)-5-methylnicotinamide] yielded an inhibition constant Ki on WDR5 of 22.9 nM.

Values taken from patent publication US10501466B2, “WDR5 inhibitors and modulators” (Vanderbilt University, priority 2017, dated 2019).
